US12570615B2, “Quinazolinone derivatives” (Hoffmann-La Roche Inc., priority 2021, dated 2026)
Counter-ions that a name gives are not always drawn.

How the values were obtained:
BRAF (V600E) = BRAF (V600E) (Homo sapiens, UniProt P15056, V600E); experiment: KD BRAF (V600E) (Table 1); assay type: binding
BRAF (wt) = BRAF (wt) (Homo sapiens, UniProt P15056); experiment: KD BRAF (wt) (Table 1); assay type: binding
[1] = tested on: P-ERK (ERK phospho-T202/Y204) in A375 cells expressing V600E mutated BRAF; experiment: HTRF assay for P-ERK determination in A375 cells (BRAF inhibition); assay type: cell-based; settings: Homo sapiens, A-375, P-ERK level, drug incubation 1 hour, DMSO = 100%, 10 μM Dabrafenib = 0%
From the text: (§1) A375 is a cellular cancer model expressing V600E mutated BRAF and HCT116 a cellular cancer model expressing WT BRAF. First generation BRAF inhibitors such as e.g. dabrafenib induce a paradox effect on tumour cells in that they inhibit the growth of V600E mutated BRAF cells (such as e.g. A375), while they activate growth in WT BRAF cells (such as e.g. HCT 116). ERK 1,2 phosphorylation (terminal member of the phosphorylation cascade of the MAPK pathway) is hereafter reported as main readout for the activation status of the MAPK pathway. DMEM no-phenol red medium supplemented with L-glutamine was purchased from (Thermo Fisher Scientific). Fetal bovine serum (FBS) was purchased from VWR. Advanced ERK phospho-T202/Y204 kit—10,000 tests was purchased from Cisbio cat #64AERPEH. A375 (catalog #CRL-1619) and HCT116 (catalog #CCL-247) cells were originally obtained from American type Culture Collection (ATCC) and banked by the Roche repository. 384-Well microplates utilized were purchased from Greiner Bio-One, 384-well, (With Lid, HiBase, Low volume cat 784-080).
(§2) Prior to the assay, A375 and HCT116 cell lines are maintained in DMEM no-phenol red medium supplemented with 10% fetal bovine serum (FBS). Following compound treatment, P-ERK levels are determined by measuring FRET fluorescence signal induced by selective binding of 2 antibodies provided in the mentioned kit (Cisbio cat #64AERPEH) on ERK protein when phosphorylated at Thr202/Tyr204. Briefly, 8000 cells/well in 12 μl media/well are plated in the 384-well plate and left overnight in the incubator (at 37° C. with 5% CO2-humidified atmosphere), the following day the plate is treated in duplicate with test compounds, dabrafenib and PLX8394 (the latter two as controls) at the following final drug concentrations: 10 μM-3 μM 1 μM-0.3 μM-0.1 μM-0.03 μM-0, 01 μM-0.003 μM-0.001 μM, all wells are subjected to DMSO normalization and drug incubation occurs for 1 hour. Then, […] of a 4× lysis buffer supplied with the kit are added to the wells, the plate is then centrifuged for 30 second (3000 rpm) and incubated on a plate shaker for 1 h at rt.
(§3) At the end of the incubation 4 μL/well of advanced P-ERK antibody solution (prepared according to manufacturer's instruction) followed by 4 μL/well of criptate P-ERK antibody solution (prepared according to manufacturer's instruction) (Cisbio cat #64AERPEH) are added to test wells.
(§4) In order to allow proper data normalization control wells non drug treated reported in the following table are always included in each plate (according to manufacturer's instruction):
(§5) The plate is then centrifuged at 3000 rpm for 30 second, sealed to prevent evaporation and incubated overnight in the dark at room temperature.
(§6) The plate is then analyzed and fluorescence emission value collected through a Pherastast FSX (BMG Labtech) apparatus at […].
(§7) The obtained fluorescence values are processed according to the formula Ratio=[…]*10000 then the average of the ratio on the blank is subtracted to all values.
Data are normalized in the case of A375 cells (BRAF inhibition) considering the average of the ratio (blank subtracted) derived by DMSO only treated cells as 100% and by considering the average of the ratio (blank subtracted) derived by 10 μM Dabrafenib treated cells as 0%. Mean of the normalized points are fitted with sigmoidal curve and IC50 determined.

[2] = tested on: P-ERK (ERK phospho-T202/Y204) in HCT116 cells expressing WT BRAF; experiment: HTRF assay for P-ERK determination in HCT116 cells (BRAF activation); assay type: cell-based; settings: Homo sapiens, HCT-116, drug incubation 1 hour, concentration giving 50% of the maximum activation achieved by Dabrafenib
From the text: as §1, §2, §3, §4, §5, §6, §7
Data are normalized in the case of HCT116 cells (BRAF activation) considering the average of the ratio (blank subtracted) derived by DMSO only treated cells as 0% and by considering the average of the ratio (blank subtracted) derived by Dabrafenib treated cells at the concentration which provides the highest signal as 100%. Individual points are fitted with either sigmoidal or bell shape curves. The EC50 is the concentration at which activation equal to 50% of the maximum activation achieved by Dabrafenib is obtained.

Chain of BRAF (wt) (P15056 whole entry): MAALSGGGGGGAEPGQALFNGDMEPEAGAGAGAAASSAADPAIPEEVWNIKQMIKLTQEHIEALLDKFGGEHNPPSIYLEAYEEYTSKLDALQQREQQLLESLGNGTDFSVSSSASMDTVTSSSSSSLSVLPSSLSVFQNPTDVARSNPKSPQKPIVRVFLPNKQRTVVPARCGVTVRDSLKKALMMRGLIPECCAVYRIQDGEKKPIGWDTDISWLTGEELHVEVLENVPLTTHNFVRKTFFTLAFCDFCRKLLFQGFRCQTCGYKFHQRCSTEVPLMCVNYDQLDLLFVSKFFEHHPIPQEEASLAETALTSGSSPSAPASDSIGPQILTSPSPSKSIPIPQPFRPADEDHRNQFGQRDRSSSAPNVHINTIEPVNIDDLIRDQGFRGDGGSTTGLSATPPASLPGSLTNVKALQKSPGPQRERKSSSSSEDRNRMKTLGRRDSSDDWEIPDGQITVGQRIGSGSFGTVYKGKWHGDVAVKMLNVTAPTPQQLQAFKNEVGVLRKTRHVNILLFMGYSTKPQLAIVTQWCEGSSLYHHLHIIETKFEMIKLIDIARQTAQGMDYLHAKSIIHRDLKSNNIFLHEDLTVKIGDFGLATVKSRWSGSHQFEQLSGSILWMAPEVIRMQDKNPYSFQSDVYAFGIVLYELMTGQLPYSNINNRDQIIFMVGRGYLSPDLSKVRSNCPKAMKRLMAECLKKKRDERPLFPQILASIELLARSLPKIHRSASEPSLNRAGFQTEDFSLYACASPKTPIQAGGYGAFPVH
Chain of BRAF (V600E) (P15056 whole entry V600E): as the sequence (P15056 whole entry) above, with V600E counted along it

Row | Kd (BRAF (V600E)) | Kd (BRAF (wt)) | IC50 [1] | EC50 [2] | Structure (SMILES)
1 | 20.9 nM | 7.92 nM | 12.9 nM | 7220 nM | CC(C)(C)OC(=O)CCCn1cnc2ccc(Nc3cccc(NS(=O)(=O)N4CC[C@@H](F)C4)c3C#N)cc2c1=O [Example 35, tert-butyl 4-[6-[2-cyano-3-[[(3R)-3-fluoropyrrolidin-1-yl]sulfonylamino]anilino]-4-oxo-quinazolin-3-yl]butanoate]
2 | 273 nM | 131 nM | 114 nM | ≥ 10000 nM | N#Cc1c(Nc2ccc3ncn(CCOCc4ccccc4)c(=O)c3c2)cccc1NS(=O)(=O)N1CC[C@@H](F)C1 [Example 36, (3R)—N-[3-[[3-(2-benzyloxyethyl)-4-oxo-quinazolin-6-yl]amino]-2-cyano-phenyl]-3-fluoro-pyrrolidine-1-sulfonamide]
3 | 43.7 nM | 20.8 nM | 80.6 nM | 4470 nM | CC(C)(C)OC(=O)N1CCC(CCn2cnc3ccc(Nc4cccc(NS(=O)(=O)N5CC[C@@H](F)C5)c4C#N)cc3c2=O)CC1 [Example 37, tert-butyl 4-[2-[6-[2-cyano-3-[[(3R)-3-fluoropyrrolidin-1-yl]sulfonylamino]anilino]-4-oxo-quinazolin-3-yl]ethyl]piperidine-1-carboxylate]
4 | 443 nM | 174 nM | 5740 nM | ≥ 10000 nM | CCN(C)S(=O)(=O)Nc1cccc(Nc2ccc3ncn(CCOCCOCCN)c(=O)c3c2)c1C#N [Example 38, 3-[2-[2-(2-aminoethoxy)ethoxy]ethyl]-6-[2-cyano-3-[[ethyl(methyl)sulfamoyl]amino]anilino]-4-oxo-quinazoline hydrochloride]
5 | 48.3 nM | 11.6 nM | ≥ 10000 nM | ≥ 10000 nM | N#Cc1c(Nc2ccc3ncn(CCCC(=O)O)c(=O)c3c2)cccc1NS(=O)(=O)N1CC[C@@H](F)C1 [Example 39, 4-[6-[2-cyano-3-[[(3R)-3-fluoropyrrolidin-1-yl]sulfonylamino]anilino]-4-oxo-quinazolin-3-yl]butanoic acid]
6 | 7.88 nM | 3.71 nM | 334 nM | ≥ 10000 nM | CC(C)(C)OC(=O)N1CCN(C(=O)CCCn2cnc3ccc(Nc4cccc(NS(=O)(=O)N5CC[C@@H](F)C5)c4C#N)cc3c2=O)CC1 [Example 40, tert-butyl 4-[4-[6-[2-cyano-3-[[(3R)-3-fluoropyrrolidin-1-yl]sulfonylamino]anilino]-4-oxo-quinazolin-3-yl]butanoyl]piperazine-1-carboxylate]
7 | 9.29 nM | 6.19 nM | 1510 nM | ≥ 10000 nM | CC(C)(C)OC(=O)N1CCC(NC(=O)CCCn2cnc3ccc(Nc4cccc(NS(=O)(=O)N5CC[C@@H](F)C5)c4C#N)cc3c2=O)CC1 [Example 41]
8 | 203 nM | 79.2 nM | 162 nM | 6200 nM | CN(C1CC1)S(=O)(=O)Nc1cccc(Nc2ccc3ncn(CCCC(=O)OC(C)(C)C)c(=O)c3c2)c1C#N [Example 42, tert-butyl 4-[6-[2-cyano-3-[[cyclopropyl(methyl)sulfamoyl]amino]anilino]-4-oxo-quinazolin-3-yl]butanoate]
9 | 7.18 nM | 4.47 nM | 74.6 nM | 5610 nM | CC(C)(C)OC(=O)NCCCn1cnc2ccc(Nc3cccc(NS(=O)(=O)N4CC[C@@H](F)C4)c3C#N)cc2c1=O [Example 43, tert-butyl N-[3-[6-[2-cyano-3-[[(3R)-3-fluoropyrrolidin-1-yl]sulfonylamino]anilino]-4-oxo-quinazolin-3-yl]propyl]carbamate]
10 | 25.6 nM | 15.1 nM | 18.2 nM | 2070 nM | N#Cc1c(Nc2ccc3ncn(CCCc4ccccc4)c(=O)c3c2)cccc1NS(=O)(=O)N1CC[C@@H](F)C1 [Example 44, (3R)—N-[2-cyano-3-[[4-oxo-3-(3-phenylpropyl)quinazolin-6-yl]amino]phenyl]-3-fluoro-pyrrolidine-1-sulfonamide]
11 | 8.34 nM | 3.41 nM | 814 nM | ≥ 10000 nM | CN(CCNC(=O)CCCn1cnc2ccc(Nc3cccc(NS(=O)(=O)N4CC[C@@H](F)C4)c3C#N)cc2c1=O)C(=O)OC(C)(C)C [Example 45, tert-butyl N-[2-[4-[6-[2-cyano-3-[[(3R)-3-fluoropyrrolidin-1-yl]sulfonylamino]anilino]-4-oxo-quinazolin-3-yl]butanoylamino]ethyl]-N-methyl-carbamate]
12 | 73.5 nM | 21.2 nM | 20.6 nM | 2540 nM | CC(C)(C)OC(=O)N1CCC(CCn2cnc3ccc(Nc4cccc(NS(=O)(=O)N5CCCC5)c4C#N)cc3c2=O)CC1 [Example 46, tert-butyl 4-[2-[6-[2-cyano-3-(pyrrolidin-1-ylsulfonylamino)anilino]-4-oxo-quinazolin-3-yl]ethyl]piperidine-1-carboxylate]
